From patent US6472391B2, “Nitrogen-containing heterocyclic compounds” (Millennium Pharmaceuticals, Inc., priority 1996, dated 2002)

Row | SMILES | melting point [°C]
1 | COC(=O)c1scc(C)c1NC(=S)N1CCN(c2ncnc3cc(OC)c(OC)cc23)CC1 [Compound 261, 4-(6,7-Dimethoxy-4-quinazolinyl)-N-(2-methoxycarbonyl-4-methyl-3-thienyl)-1-piperazinethiocarboxamide] | 113 to 116
2 | COc1cc2ncnc(N3CCN(C(=S)Nc4ccccn4)CC3)c2cc1OC [Compound 262, 4-(6,7-Dimethoxy-4-quinazolinyl)-N-(2-pyridyl)-1-piperazinethiocarboxamide] | 208 to 210
3 | COc1cc2ncnc(N3CCN(C(=O)Nc4cccnc4)CC3)c2cc1OC [Compound 265, 4-(6,7-Dimethoxy-4-quinazolinyl)-N-(3-pyridyl)-1-piperazinecarboxamide] | 208 to 209
4 | COc1cc2ncnc(N3CCN(C(=O)NCc4cccnc4)CC3)c2cc1OC [Compound 266, 4-(6,7-Dimethoxy-4-quinazolinyl)-N-(3-picolyl)-1-piperazinecarboxamide] | 188 to 189
5 | COc1cc2ncnc(N3CCN(C(=O)Nc4ccncc4)CC3)c2cc1OC [Compound 267, 4-(6,7-Dimethoxy-4-quinazolinyl)-N-(4-pyridyl)-1-piperazinecarboxamide] | 141 to 143
6 | COc1cc2ncnc(N3CCN(C(=S)Nc4ccncc4)CC3)c2cc1OC [Compound 268, 4-(6,7-Dimethoxy-4-quinazolinyl)-N-(4-pyridyl)-1-piperazinethiocarboxamide] | 218 to 220
7 | COc1cc2ncnc(N3CCN(C(=S)NCc4ccncc4)CC3)c2cc1OC [Compound 270, 4-(6,7-Dimethoxy-4-quinazolinyl)-N-(4-picolyl)-1-piperazinethiocarboxamide] | 236 to 239
8 | COc1cc2ncnc(N3CCN(C(=O)Nc4ccc(C)nc4)CC3)c2cc1OC [Compound 271, 4-(6,7-Dimethoxy-4-quinazolinyl)-N-(2-methyl-5-pyridyl)-1-piperazinecarboxamide] | 240 to 241
9 | COc1cc2ncnc(N3CCN(C(=O)Nc4ccc(Cl)nc4)CC3)c2cc1OC [Compound 272, N-(2-Chloro-5-pyridyl)-4-(6,7-dimethoxy-4-quinazolinyl)-1-piperazinecarboxamide] | 238 to 240
10 | COc1cc2ncnc(N3CCN(C(=O)Nc4ccc(C#N)nc4)CC3)c2cc1OC [Compound 273, N-(2-Cyano-5-pyridyl)-4-(6,7-dimethoxy-4-quinazolinyl)-1-piperazinecarboxamide] | 275 to 277
11 | COc1cc2ncnc(N3CCN(C(=S)NCc4ncc(C(F)(F)F)cc4Cl)CC3)c2cc1OC [Compound 276, N-(3-Chloro-5-trifluoromethyl-2-picolyl)-4-(6,7-dimethoxy-4-quinazolinyl)-1-piperazinethiocarboxamide] | 182 to 183
12 | COc1cc2ncnc(N3CCN(C(=S)Nc4cc(O)nc(O)n4)CC3)c2cc1OC [Compound 277, N-(2,6-Dihydroxy-4-pyrimidinyl)-4-(6,7-dimethoxy-4-quinazolinyl)-1-piperazinethiocarboxamide] | 283 to 285
13 | COc1cc2ncnc(N3CCN(C(=O)NCc4cnc(C)cn4)CC3)c2cc1OC [Compound 278, 4-(6,7-Dimethoxy-4-quinazolinyl)-N-(5-methyl-2-pyrazinylmethyl)-1-piperazinecarboxamide] | 202 to 204
14 | COc1cc2ncnc(N3CCN(C(=S)NC4CCOC4=O)CC3)c2cc1OC (centres unmarked) [Compound 279, 4-(6,7-Dimethoxy-4-quinazolinyl)-N-(2,3,4,5-tetrahydro-2-oxo-3-furyl)-1-piperazinethiocarboxamide] | 147 to 148
15 | COc1cc2ncnc(N3CCN(C(=O)Nc4ccc(-n5cccc5)cc4)CC3)c2cc1OC [Compound 280, 4-(6,7-Dimethoxy-4-quinazolinyl)-N-[4-(1-pyrrolyl)phenyl]-1-piperazinecarboxamide] | 224 to 226
16 | COc1cc2ncnc(N3CCN(C(=S)Nc4ccc(Cc5ccncc5)cc4)CC3)c2cc1OC [Compound 282, 4-(6,7-Dimethoxy-4-quinazolinyl)-N-[4-(4-picolyl)phenyl]-1-piperazinethiocarboxamide] | 198 to 200
17 | S=C(NCc1ccccc1)N1CCN(c2ncnc3ccccc23)CC1 [Compound 285, N-Benzyl-4-(4-quinazolinyl)-1-piperazinethiocarboxamide] | 68 to 70
18 | S=C(NCc1cccnc1)N1CCN(c2ncnc3ccccc23)CC1 [Compound 286, N-(3-Picolyl)-4-(4-quinazolinyl)-1-piperazinethiocarboxamide] | 193 to 194
19 | Cc1cccc2ncnc(N3CCN(C(=O)Nc4ccc(Oc5ccccc5)cc4)CC3)c12 [Compound 287, 4-(5-Methyl-4-quinazolinyl)-N-(4-phenoxyphenyl)-1-piperazinecarboxamide] | 187 to 188
20 | Cc1cccc2ncnc(N3CCN(C(=S)NCc4ccccc4)CC3)c12 [Compound 288, N-Benzyl-4-(5-methyl-4-quinazolinyl)-1-piperazinethiocarboxamide] | 165 to 167
21 | Cc1ccc2ncnc(N3CCN(C(=O)Nc4ccc([N+](=O)[O-])cc4)CC3)c2c1 [Compound 293, 4-(6-Methyl-4-quinazolinyl)-N-(4-nitrophenyl)-1-piperazinecarboxamide] | 126 to 129

Row | SMILES | melting point [°C]
22 | Cc1ccc2ncnc(N3CCN(C(=S)NCc4cccnc4)CC3)c2c1 [Compound 295, 4-(6-Methyl-4-quinazolinyl)-N-(3-picolyl)-1-piperazinethiocarboxamide] | 128 to 129
23 | CC(C)c1ccc(NC(=O)N2CCN(c3ncnc4ccc(F)cc34)CC2)cc1 [Compound 296, 4-(6-Fluoro-4-quinazolinyl)-N-(4-isopropylphenyl)-1-piperazinecarboxamide] | 139 to 140
24 | CC(=O)c1ccc(NC(=O)N2CCN(c3ncnc4ccc(F)cc34)CC2)cc1 [Compound 298, N-(4-Acetylphenyl)-4-(6-fluoro-4-quinazolinyl)-1-piperazinecarboxamide] | 184 to 185
25 | Fc1ccc2ncnc(N3CCN(C(=S)NCc4cccnc4)CC3)c2c1 [Compound 299, 4-(6-Fluoro-4-quinazolinyl)-N-(3-picolyl)-1-piperazinethiocarboxamide] | 170 to 172
26 | CC(C)c1ccc(NC(=O)N2CCN(c3ncnc4ccc(Cl)cc34)CC2)cc1 [Compound 300, 4-(6-Chloro-4-quinazolinyl)-N-(4-isopropylphenyl)-1-piperazinecarboxamide] | 192 to 193
27 | O=C(Nc1ccc(Oc2ccccc2)cc1)N1CCN(c2ncnc3ccc(Cl)cc23)CC1 [Compound 301, 4-(6-Chloro-4-quinazolinyl)-N-(4-phenoxyphenyl)-1-piperazinecarboxamide] | 116 to 120
28 | CC(=O)c1ccc(NC(=O)N2CCN(c3ncnc4ccc(Cl)cc34)CC2)cc1 [Compound 302, N-(4-Acetylphenyl)-4-(6-chloro-4-quinazolinyl)-1-piperazinecarboxamide] | 207 to 208
29 | O=C(Nc1ccc(Oc2ccccc2)cc1)N1CCN(c2ncnc3ccc(Br)cc23)CC1 [Compound 303, 4-(6-Bromo-4-quinazolinyl)-N-(4-phenoxyphenyl)-1-piperazinecarboxamide] | 169 to 170
30 | CC(C)c1ccc(NC(=O)N2CCN(c3ncnc4ccc(I)cc34)CC2)cc1 [Compound 304, 4-(6-Iodo-4-quinazolinyl)-N-(4-isopropylphenyl)-1-piperazinecarboxamide] | 211 to 212
31 | O=C(Nc1ccc(Oc2ccccc2)cc1)N1CCN(c2ncnc3ccc(I)cc23)CC1 [Compound 305, 4-(6-Iodo-4-quinazolinyl)-N-(4-phenoxyphenyl)-1-piperazinecarboxamide] | 184 to 185
32 | COc1ccc2ncnc(N3CCN(C(=O)Nc4ccc(Oc5ccccc5)cc4)CC3)c2c1 [Compound 307, 4-(6-Methoxy-4-quinazolinyl)-N-(4-phenoxyphenyl)-1-piperazinecarboxamide] | 139 to 140
33 | COc1ccc2ncnc(N3CCN(C(=O)Nc4ccc([N+](=O)[O-])cc4)CC3)c2c1 [Compound 308, 4-(6-Methoxy-4-quinazolinyl)-N-(4-nitrophenyl)-1-piperazinecarboxamide] | 228 to 229
34 | COc1ccc2ncnc(N3CCN(C(=S)NCc4ccccc4)CC3)c2c1 [Compound 309, N-Benzyl-4-(6-methoxy-4-quinazolinyl)-1-piperazinethiocarboxamide] | 68 to 70
35 | COc1ccc2ncnc(N3CCN(C(=S)NCc4cccnc4)CC3)c2c1 [Compound 310, 4-(6-Methoxy-4-quinazolinyl)-N-(3-picolyl)-1-piperazinethiocarboxamide] | 139 to 140
36 | O=C(Nc1ccc(Oc2ccccc2)cc1)N1CCN(c2ncnc3ccc([N+](=O)[O-])cc23)CC1 [Compound 311, 4-(6-Nitro-4-quinazolinyl)-N-(4-phenoxyphenyl)-1-piperazinecarboxamide] | 170 to 171
37 | Cc1ccc2c(N3CCN(C(=O)Nc4ccc([N+](=O)[O-])cc4)CC3)ncnc2c1 [Compound 313, 4-(7-Methyl-4-quinazolinyl)-N-(4-nitrophenyl)-1-piperazinecarboxamide] | 251 to 254
38 | Cc1ccc2c(N3CCN(C(=S)NCc4ccccc4)CC3)ncnc2c1 [Compound 314, N-Benzyl-4-(7-methyl-4-quinazolinyl)-1-piperazinethiocarboxamide] | 177 to 178
39 | S=C(NCc1ccccc1)N1CCN(c2ncnc3cc(Cl)ccc23)CC1 [Compound 317, N-Benzyl-4-(7-chloro-4-quinazolinyl)-1-piperazinethiocarboxamide] | 70 to 71
40 | CC(C)Oc1ccc2c(N3CCN(C(=O)Nc4ccc(Oc5ccccc5)cc4)CC3)ncnc2c1 [Compound 318, 4-(7-Isopropoxy-4-quinazolinyl)-N-(4-phenoxyphenyl)-1-piperazinecarboxamide] | 181 to 182
41 | O=C(Nc1ccc(Oc2ccccc2)cc1)N1CCN(c2ncnc3cc([N+](=O)[O-])ccc23)CC1 [Compound 322, 4-(7-Nitro-4-quinazolinyl)-N-(4-phenoxyphenyl)-1-piperazinecarboxamide] | 146 to 148
